Here are results for 4 sequences from patent publication US7718768B2, “Biologically active peptide [sequence]” (CMS Peptides Patent Holding Company Limited, priority 2001, dated 2010).

One assay concerns B16 melanoma cells. Put plainly: lung metastasis foci of inoculated B16 melanoma cells, postmortem examination. Format: in vivo, C57BL/6 mice. On the procedure:
Intraperitoneal injection, once per day. […] Treatment of all groups with testing substance lasted for 30 days or until the animal died unless otherwise specified. […] The cell concentration was adjusted to 1×10^5 per ml with Hank's solution and 0.1 ml of the cell suspension was injected via the tail vein into the testing mice to generate the B16 melanoma bearing animal model. Treatment with test substance started as described in section Method 1. […] Postmortum Examination of the Animals was Performed. The Pathological Changes were Recorded, and the Numbers of Melanoma Lung Metastasis Foci were Counted. Results 1. The Effect of Peptide on the Cellular Phagocytosis in BALB/c Mice with Transplanted S180 Sarcoma (Method 2.1)

The nature of assay [1]: body weight of rats fed high nutrition diet (obesity induced by over-feeding). Type of assay: in vivo, Sprague-Dawley (SD) rats. On the procedure:
Sprague-Dawley (SD) rats, weighing 145±10 g, were supplied by the Center of Experimental Animal of Guangzhou University of Traditional Chinese Medicine, PR China (certificate No.: 2000A019). Peptides were custom synthesized (of L-amino acids origin) by American Peptide Company, Inc., USA, and were diluted to 10 μg/ml in normal saline. The high and normal nutrition diets were prepared in compliance with the guideline for pre-clinical research of anti-obesity drug, issued by SDA (State Drug Administration), PR China^[1].
Healthy rats were randomized into the experiment, positive control, and negative control groups. 10 rats per group, half male and half female. The experiment group of rats was fed with high nutrition diet for 5 weeks with simultaneous intramuscular injection of 300 μg/kg/day peptide, once per day. Positive control group received the same high nutrition diet but placebo saline injection, while negative control group, used to proof successful establishment of obesity model, received normal nutrition diet and placebo saline injection. After 5 weeks treatment, injection was stopped and the same diet was maintained for another 3 weeks. The rats were weighed at once per week interval. Behaviour of the rats was also observed.
The data were presented as mean±standard deviation. Paired t test or single-factor ANOVA was used for inter and intra group comparison. Statistical significance cut-off was at P≦0.05.

In assay [2] the test system is Duck Hepatitis B Virus (DHBV). Briefly: Chongqing duck hepatitis B model, serum DHBV DNA by dot-blot hybridization. The conditions noted are these: CMS001 50 μg/kg/day i.p., lamivudine 50 mg/kg/day oral. Format: in vivo, Chongqing ducks.

Marks after values point to notes of the source that are not given here. No end group written: not given here.

For the sequence IGMESAGIHETTY [CMS016], the “B16 metastatic foci in the lung, postmortem examination” value in the assay with B16 melanoma cells (5 μg/kg/day i.p.) and with B16 melanoma cells (500 μg/kg/day i.p.) was “did not show any sign of existence of B16 metastatic foci in the lung” throughout.

Take KAVGHLDDLPGAL [CMS008]: the “B16 metastatic foci in the lung, postmortem examination” value with B16 melanoma cells (0.5 μg/kg/day i.p.), in the assay on B16 melanoma cells (5 μg/kg/day i.p.) and in the assay on B16 melanoma cells (50 μg/kg/day i.p.) was “did not show any sign of existence of B16 metastatic foci in the lung” in each case.

Take PSIVGRPRHQGVM [CMS015]: the body weight came out at 129.2 ± 3.3 g in assay [1] (Pre-treatment, Female n = 5, 300 μg/kg/day intramuscular); 145.6 ± 8.5 g in assay [1] (Pre-treatment, Male n = 5, 300 μg/kg/day intramuscular); 157.8 ± 8.3 g in assay [1] (Week 1, Female, 300 μg/kg/day intramuscular); 183.8 ± 10.6 g in assay [1] (Week 1, Male, 300 μg/kg/day intramuscular); 176.0 ± 11.2 g in assay [1] (Week 2, Female, 300 μg/kg/day intramuscular); 220.6 ± 12.2 g in assay [1] (Week 2, Male, 300 μg/kg/day intramuscular). Besides, the body weight in assay [1] (Week 3, Female, 300 μg/kg/day intramuscular) is 196.0 ± 10.5 g; in assay [1] (Week 3, Male, 300 μg/kg/day intramuscular) it was 239.0 ± 16.0 g; in assay [1] (Week 4, Female, 300 μg/kg/day intramuscular), 212.0 ± 13.5 g; in assay [1] (Week 4, Male, 300 μg/kg/day intramuscular) it was 258.2 ± 18.1 g; in assay [1] (Week 5 (last week of injection), Female, 300 μg/kg/day intramuscular), 221.4 ± 13.2 g; in assay [1] (Week 5 (last week of injection), Male, 300 μg/kg/day intramuscular), 268.8 ± 17.7 g. The body weight in assay [1] (Week 6 (injection stopped after week 5), Female) stood at 235.6 ± 16.3 g; in assay [1] (Week 6 (injection stopped after week 5), Male) it was 299.4 ± 21.2 g; in assay [1] (Week 7 (injection stopped after week 5), Female), 242.2 ± 18.8 g; in assay [1] (Week 7 (injection stopped after week 5), Male), 310.4 ± 25.9 g; in assay [1] (Week 8 (injection stopped after week 5), Female), 252.8 ± 22.5 g; in assay [1] (Week 8 (injection stopped after week 5), Male), 337.4 ± 30.6 g.

Turning to PTTKTYFPHF [CMS001], the “Serum DHBV DNA level” value is listed as 21 ± 18 10^3 units in assay [2] (Day 0 (before treatment), Mean ± Standard Deviation); 11 ± 13 10^3 units in assay [2] (Day 7 of treatment); 20 ± 18 10^3 units in assay [2] (Day 14 of treatment); 14 ± 14 10^3 units in assay [2] (Day 21 of treatment); 5 ± 3* 10^3 units in assay [2] (Day 28 (end of 4 weeks treatment)); 18 ± 16 10^3 units in assay [2] (Day 35 (one week after termination of treatment)).
